In US12691112B2, “FGFR tyrosine kinase inhibitors for the treatment of urothelial carcinoma” (Janssen Pharmaceutica NV, priority 2019, dated 2026):
Where two headings read alike, the source gives them in different places.

Test system: subjects with metastatic or surgically unresectable urothelial cancer
[1] = all-causality, 10 mg intermittent, n = 33
[2] = treatment-emergent, all-causality, 8 mg Continuous, Regimen 3 (n = 99)
[3] = treatment-related, 6 mg Continuous, Regimen 2 (n = 78)
[4] = treatment-related, 8 mg Continuous Erdafitinib, Regimen 3 (n = 99)
[5] = treatment-related, 10 mg Intermittent, Regimen 1 (n = 33)

Method: Study treatment was administered on 28-day cycles. […] Patients were randomized 1:1 to 28-day cycles to the following 2 regimens until a regimen was selected for further study: Regimen 1 (10 mg once daily intermittent (7 days on/7 days); Regimen 2 (6 mg once daily continuous). Randomization was stratified according to performance status (0 to 1 vs. 2), hemoglobin value (<10 vs. ≥10 g per dl), FGFR alteration type (mutation vs. fusion), prior treatment status (chemotherapy-resistant vs. chemotherapy naïve), and disease distribution (presence or absence of visceral [liver, lung, bone]metastases). Starting dose selection was based on phase 1 efficacy and tolerability.
Based on interim analysis and pharmacokinetic-pharmacodynamic modeling of serum phosphate levels, starting dose was increased to 8 mg per day continuous (Regimen 3). Thus, after interim analysis, this became a single-arm study. […] Treatment continued until disease progression or unacceptable adverse event(s) per investigator.
Safety was evaluated based on clinical laboratory tests, physical exams, electrocardiograms, and ophthalmology examinations. Adverse events and abnormalities were assessed by investigator and graded per NCI CTCAE v.4.0
Prophylactic measures were taken to minimize risk of common adverse events related to FGFR inhibition. To reduce risk of hyperphosphatemia, a low-phosphate diet was recommended for all patients (600 to 800 mg of dietary phosphate intake per day). To reduce the risk of skin effects, the application of alcohol-free emollient moisturizing cream and avoidance of unnecessary exposure to sunlight, soap, perfumed products, and hot baths was recommended. Patients were asked to keep their fingers and toes clean and nails trimmed to reduce risk of nail effects.
Additional ophthalmology examinations were performed if clinically indicated.

SMILES: COc1cc(OC)cc(N(CCNC(C)C)c2ccc3ncc(-c4cnn(C)c4)nc3c2)c1 [erdafitinib, N-(3,5-dimethoxy-phenyl)-N′-(1-methylethyl)-N-[3-(1-methyl-1H-pyrazol-4-yl)quinoxalin-6-yl]ethane-1,2-diamine]
- Paronychia, grade 1 [1]: 0 no.
- Paronychia, grade 2 [1]: 2 no.
- Paronychia, grade ≥ 3 [1]: 0 no.
- Peripheral edema, any grade [1]: 5 no.
- Peripheral edema, grade 1 [1]: 1 no.
- Peripheral edema, grade 2 [1]: 4 no.
- Peripheral edema, grade ≥ 3 [1]: 0 no.
- Pyrexia, any grade [1]: 5 no.
- Pyrexia, grade 1 [1]: 5 no.
- Pyrexia, grade 2 [1]: 0 no.
- Pyrexia, grade ≥ 3 [1]: 0 no.
- Retinal detachment, any grade [1]: 2 no.
- Retinal detachment, grade 1 [1]: 1 no.
- Retinal detachment, grade 2 [1]: 1 no.
- Retinal detachment, grade ≥ 3 [1]: 0 no.
- Stomatitis, any grade [1]: 16 no.
- Stomatitis, grade 1 [1]: 9 no.
- Stomatitis, grade 2 [1]: 6 no.
- Stomatitis, grade ≥ 3 [1]: 1 no.
- Urinary tract infection, any grade [1]: 4 no.
- Urinary tract infection, grade 1 [1]: 0 no.
- Urinary tract infection, grade 2 [1]: 2 no.
- Urinary tract infection, grade ≥ 3 [1]: 2 no.
- Vision blurred, any grade [1]: 5 no.
- Vision blurred, grade 1 [1]: 4 no.
- Vision blurred, grade 2 [1]: 1 no.
- Vision blurred, grade ≥ 3 [1]: 0 no.
- Vomiting, any grade [1]: 9 no.
- Vomiting, grade 1 [1]: 7 no.
- Vomiting, grade 2 [1]: 2 no.
- Vomiting, grade ≥ 3 [1]: 0 no.
- Weight decreased, any grade [1]: 3 no.
- Weight decreased, grade 1 [1]: 1 no.
- Weight decreased, grade 2 [1]: 2 no.
- Weight decreased, grade ≥ 3 [1]: 0 no.
- CSR leading to discontinuation (in vivo): three patients
- discontinuation due to grade 1 hyperphosphatemia (in vivo): One patient discontinued treatment
- normalization of phosphate elevation (in vivo): normalized by cycle 5
- retinal vein or artery occlusion (in vivo): no patient had retinal vein or artery occlusion
- time of peak phosphate elevation after erdafitinib initiation (in vivo): 6 weeks
- death as a result of an adverse event (myocardial infarction considered unrelated to treatment): One patient died as a result of an adverse event
- patients with grade ≥3 treatment-emergent adverse events (overall trial population): 66%
- some type of eye disorder, regardless of relation to treatment (patients overall): 54%
- Patients with Alopecia, Grade ≥3 [2]: 0 no.
- Patients with Decreased appetite, Grade ≥3 [2]: 0 no.
- Patients with Dry mouth, Grade ≥3 [2]: 0 no.
- Patients with Dry skin, Grade ≥3 [2]: 0 no.
- Patients with Urinary tract infection, Grade 1 [2]: 0 no.
- Patients with Vision blurred, Grade ≥3 [2]: 0 no.
- Patients with Alopecia, Any grade [3]: 8 no.
- Patients with Alopecia, Grade 2 [3]: 0 no.
- Patients with Alopecia, Grade ≥3 [3]: 0 no.
- Patients with Conjunctivitis, Grade 2 [3]: 0 no.
- Patients with Conjunctivitis, Grade ≥3 [3]: 0 no.
- Patients with Diarrhea, Grade ≥3 [3]: 0 no.
- Patients with Dry skin, Grade ≥3 [3]: 0 no.
- Patients with Dysgeusia, Grade ≥3 [3]: 0 no.
- Patients with Hand-foot syndrome, Grade ≥3 [3]: 0 no.
- Patients with Hyperphosphatemia, Grade ≥3 [3]: 0 no.
- Patients with Lacrimation increased, Grade ≥3 [3]: 0 no.
- Patients with Nausea, Grade ≥3 [3]: 0 no.
- Patients with Onychomadesis, Grade ≥3 [3]: 0 no.
- Patients with Paronychia, Grade ≥3 [3]: 0 no.
- Patients with Retinal detachment, Grade ≥3 [3]: 0 no.
- Patients with Arrhythmia-related events, Any grade [4]: 0 no.
- Patients with Arrhythmia-related events, Grade ≥3 [4]: 0 no.
- Patients with Alopecia, Grade ≥3 [5]: 0 no.
- Patients with Conjunctivitis, Grade ≥3 [5]: 0 no.
- Patients with Decreased appetite, Grade ≥3 [5]: 0 no.
- Patients with Diarrhea, Grade 2 [5]: 5 no.
- Patients with Dry mouth, Grade ≥3 [5]: 0 no.
- Patients with Dry skin, Grade ≥3 [5]: 0 no.
- Patients with Dysgeusia, Grade ≥3 [5]: 0 no.
- Patients with Fatigue, Grade ≥3 [5]: 0 no.
- Patients with Hand-foot syndrome, Grade 1 [5]: 0 no.
- Patients with Hand-foot syndrome, Grade ≥3 [5]: 0 no.
- Patients with Hyperphosphatemia, Grade ≥3 [5]: 0 no.
- Patients with Lacrimation increased, Grade 2 [5]: 0 no.
- Patients with Lacrimation increased, Grade ≥3 [5]: 0 no.
- Patients with Nausea, Grade ≥3 [5]: 0 no.
- Patients with Onychomadesis, Grade 2 [5]: 0 no.
- Patients with Onychomadesis, Grade ≥3 [5]: 0 no.
- Patients with Paronychia, Grade 1 [5]: 0 no.
- Patients with Paronychia, Grade ≥3 [5]: 0 no.
- Patients with Retinal detachment, Grade ≥3 [5]: 0 no.
- Patients with Vision blurred, Grade ≥3 [5]: 0 no.
